Experimental data reported in US20250354185A1, “BLUE PIGMENT AND BIOSYNTHESIS METHOD THEREOF” (VERTEXYN BIOWORKS CO., LTD., priority 2024, published 2025).

How the values were obtained:
Assay type in all cases: physicochemical
[1] = Comparison of colors of solutions in water (ddH2O); conditions: 1 mg dissolved with 10 mL of ddH2O; visual observation
Method: 1 mg of an indigoidine standard was weighed and dissolved with 10 mL of ddH2O to produce a solution of indigoidine in ddH2O. 1 mg of N-acetyl-indigoidine purified in Example 4 was weighed and dissolved with 10 mL of ddH2O to produce a solution of N-acetyl-indigoidine in ddH2O. A color difference between the solution of indigoidine in ddH2O and the solution of N-acetyl-indigoidine in ddH2O was observed, and results were shown in FIG. 17A and FIG. 17B. […] It can be seen that N-acetyl-indigoidine has a more authentic color than indigoidine.

[2] = Comparison of colors of solutions in DMSO; conditions: 1 mg dissolved with 10 mL of DMSO; visual observation
Method: 1 mg of an indigoidine standard was weighed and dissolved with 10 mL of DMSO to produce a solution of indigoidine in DMSO. 1 mg of N-acetyl-indigoidine purified in Example 4 was weighed and dissolved with 10 mL of DMSO to produce a solution of N-acetyl-indigoidine in DMSO. A color difference between the solution of indigoidine in DMSO and the solution of N-acetyl-indigoidine in DMSO was observed, and results were shown in FIG. 16A and FIG. 16B. […] The solution of N-acetyl-indigoidine in DMSO has a more vibrant and brighter color than the solution of indigoidine in DMSO.

[3] = Ultraviolet-visible absorption spectrum of HPLC product peaks; conditions: HPLC peaks of experimental group 5 (8.8 min indigoidine, 9.9 min N-acetyl-indigoidine)
Method: Wavelength: 600 nm. Flow rate: 1.0 mL/min. Sample solvent: DMSO. Injection volume: 10 μL. Column temperature: 35° C. Running time: 18 min.
Experimental group 5:50 mL of a fermentation broth of the strain HG-N-Idg01 cultured according to the method in Example 2 was collected and centrifuged to produce a cell pellet. The cell pellet was resuspended with 10 mL of a catalytic solution (including 1 g/L of glutaminc, 1 g/L of N-acetylglutamine, and 50 mM of a phosphate buffer), and a reaction was allowed at 25° C. and 220 rpm for 6 h. 100 μL of a sample was collected and tested by HPLC.
FIG. 2A and FIG. 2B show the wavelengths corresponding to the maximum absorption peaks of the experimental group 5.

color of the solution in ddH2O [1] | color of the solution in DMSO [2] | wavelength corresponding to the maximum absorption peak [3] | Molecule
blue | bright-blue | 584 nm | CC(=O)NC1=C/C(=C2/C=C(N)C(=O)NC2=O)C(=O)NC1=O [N-acetyl-indigoidine]
purple-blue | blue | 600 nm | Indigoidine
